According to patent publication US20210115104A1, “AMYLIN ANALOGUES” (Zealand Pharma A/S, priority 2015, published 2021):
*1 amine or outer side, *2 acyl side, *3 side chain or, on linkers, in order; H or OH if unused. Where a SMILES comes first, the peptide text is derived from it. Bridges are numbered along the chain shown (N, C = ends). [ ]: non-standard residue; d: D form. The star is where a group is joined. C20 diacid = O=C(O)CCCCCCCCCCCCCCCCCCC(=O)*; γGlu = O=C(O)[C@H](CCC(=O)[*:2])N[*:1]; Hyp = O=C(O)[C@@H]1C[C@@H](O)CN1; NMeI = CC[C@H](C)[C@H](NC)C(=O)O; Aad = N[C@@H](CCCC(=O)O)C(=O)O; Sar = CNCC(=O)O

Tests used:
[1] = target: T1, human calcitonin receptor (hCTR2) (Homo sapiens, UniProt P30988); test: hCTR2 cAMP assay (AlphaScreen) in COS7 cells; type: cell-based; details: cAMP induction, COS7 cells expressing hCTR2; Table 1; read-out: hCTR2 EC50
T1 construct: expressed in transfected cells
T1 sequence (P30988 25-474): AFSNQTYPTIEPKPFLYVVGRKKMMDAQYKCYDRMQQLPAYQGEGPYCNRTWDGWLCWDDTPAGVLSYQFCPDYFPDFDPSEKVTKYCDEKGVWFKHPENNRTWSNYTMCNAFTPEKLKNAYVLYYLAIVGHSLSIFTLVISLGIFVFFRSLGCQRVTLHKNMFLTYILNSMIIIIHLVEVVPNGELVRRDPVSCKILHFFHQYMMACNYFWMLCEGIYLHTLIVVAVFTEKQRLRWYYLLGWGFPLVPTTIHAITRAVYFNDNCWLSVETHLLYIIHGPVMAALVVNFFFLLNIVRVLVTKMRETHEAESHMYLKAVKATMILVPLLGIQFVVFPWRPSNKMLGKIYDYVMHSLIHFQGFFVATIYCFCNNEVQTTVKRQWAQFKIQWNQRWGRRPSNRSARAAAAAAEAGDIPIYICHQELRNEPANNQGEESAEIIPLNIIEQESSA
From the text: The cell line COS7, originating from African Green Monkey kidney fibroblast cells, was used for establishment of the stable cell lines described below. The COS7 cellular background was used due to it being RAMP naïve, and as such it provides the best available system for testing of the monomeric hCTR and different heterodimeric amylin receptor subtypes functionally generated by introduction of the individual RAMPs.
A cell line expressing the human calcitonin receptor (hCTR2) was generated in the COS7 cellular background as stable clones. In brief, hCTR2 (GI: 4502547) was amplified by PCR using primers encoding terminal restriction sites for subcloning. The 5′-end primers additionally encoded a near Kozak consensus sequence to ensure efficient translation. The fidelity of the DNA encoding the receptor was confirmed by DNA sequencing. The PCR products encoding the receptor were subcloned into a mammalian expression vector containing a neomycin (G418) resistance marker. The mammalian expression vector encoding the receptor was transfected into COS7 cells by a standard liposome transfection method. 48 hours post-transfection, cells were seeded for limited dilution cloning and selected with 1 mg/ml G418 in the culture medium. After 3 weeks, surviving colonies of hCTR2-expressing cells were picked, propagated and tested in the amylin efficacy assay as described in Example 3 below. One hCTR2-expressing clone was chosen for compound profiling.
In vitro activity of test peptides at the hCTR2 and hAMYR3 receptors was assessed by measuring the induction of cAMP following stimulation of the receptor using the AlphaScreen® cAMP Assay kit from Perkin-Elmer.
Briefly, COS7 cells expressing hCTR2 (see Example 2, above) were seeded at 30-40,000 cells per well in 96-well microtiter plates coated with 0.01% poly-L-lysine, and grown for 1 day in culture in 100 μl growth medium [DMEM, 10% FCS, Penicillin (100 IU/ml), Streptomycin (100 μg/ml)]. On the day of analysis, growth medium was removed and the cells were washed once with 200 μl Tyrode buffer [Tyrode's Salts (9.6 g/I), 10 mM HEPES, pH 7.4]. Cells were incubated in 100 μl Tyrode buffer containing increasing concentrations of test peptides, 100 µM IBMX and 0.1% casein for 15 min at 37° C. The reaction was stopped by carefully decanting off the compound/buffer medium and replacing it with lysis/detection buffer (80 μl 0.1% w/v BSA, 5 mM HEPES, 0.3% v/v Tween-20 in deionized water). After incubation at room temperature for 10 min., the cAMP content of the resulting cell lysate was estimated according to the AlphaScreen® cAMP Assay manufacturer's instructions. EC50 values were estimated by computer-aided curve fitting using the 4-parameter logistic (4PL) non-linear model.

[2] = Assessment of physical stability (Thioflavin T fibrillation); type: physicochemical; parameters: key: FND = fibrillation not detected; FD = fibrillation detected; details: 1 mg/ml, 40° C., ThT
Summary of the method: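 1 mg/ml peptide with 40 μM ThT in 50 mM phosphate pH 7.0, 50 mM histidine pH 7.0 or 50 mM acetate pH 4.0, in triplicate. Fluorescence read every 10 min after 300 s agitation over 96 h at 40 °C. Lag-time (h) is the intersection of linear fits to stable and growth phases.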

EC50 [1] [nM]	Fibrillation pH 4.0 (Ac) ([2]; 50 mM acetate buffer pH 4.0, 96 hours)	Fibrillation pH 7.0 (His) ([2]; 50 mM histidine buffer pH 7.0, 96 hours)	Fibrillation pH 7.0 (Phos.) ([2]; 50 mM phosphate buffer pH 7.0, 96 hours)	SMILES
0.12	FND	FD	FD	CC[C@H](C)[C@@H](C(=O)N[C@@H](CC(C)C)C(=O)N[C@@H](CO)C(=O)N[C@@H](CO)C(=O)N[C@H](C(=O)N[C@@H](CCC(=O)O)C(=O)N[C@H](C(=O)NCC(=O)N[C@@H](CO)C(=O)N[C@@H](CC(N)=O)C(=O)N[C@H](C(=O)N1C[C@H](O)C[C@H]1C(N)=O)[C@@H](C)O)C(C)C)[C@@H](C)O)N(C)C(=O)[C@H](C)NC(=O)CN(C)C(=O)[C@H](Cc1ccccc1)NC(=O)[C@H](CO)NC(=O)[C@H](CO)NC(=O)[C@H](CCCNC(=N)N)NC(=O)[C@@H](NC(=O)[C@H](CC(C)C)NC(=O)[C@H](Cc1ccccc1)NC(=O)[C@H](Cc1c[nH]cn1)NC(=O)[C@H](C)NC(=O)[C@H](CC(C)C)NC(=O)[C@H](CCCNC(=N)N)NC(=O)[C@H](CCC(=O)O)NC(=O)[C@@H](NC(=O)[C@H](C)NC(=O)[C@@H]1CSSC[C@H](NC(=O)[C@H](CCCNC(=N)N)NC(=O)CC[C@H](NC(=O)CCCCCCCCCCCCCCCCCCC(=O)O)C(=O)O)C(=O)NCC(=O)N[C@@H]([C@@H](C)O)C(=O)N[C@@H](C)C(=O)N[C@@H]([C@@H](C)O)C(=O)N1)[C@@H](C)O)[C@@H](C)O [Compound 18, [19CD]-isoGlu-R-C( )-GTAT-C( )-ATERLAHFLTRSSF-Gly(Me)-A-Ile(Me)-LSSTEVGSNT-Hyp-NH2] ({C20 diacid-γGlu}-RCGTATCATERLAHFLTRSSF[Sar]A[NMeI]LSSTEVGSNT[Hyp]-NH2; disulfide 2-7)
0.58				CC[C@H](C)[C@@H](C(=O)N[C@@H](CC(C)C)C(=O)N[C@@H](CO)C(=O)N[C@@H](CO)C(=O)N[C@H](C(=O)N[C@@H](CCC(=O)O)C(=O)N[C@H](C(=O)NCC(=O)N[C@@H](CO)C(=O)N[C@H](C(=O)N[C@H](C(=O)N1C[C@H](O)C[C@H]1C(N)=O)[C@@H](C)O)[C@@H](C)O)C(C)C)[C@@H](C)O)N(C)C(=O)[C@H](C)NC(=O)CN(C)C(=O)[C@H](Cc1ccccc1)NC(=O)[C@H](CO)NC(=O)[C@H](CO)NC(=O)[C@H](CCCNC(=N)N)NC(=O)[C@H](CCC(N)=O)NC(=O)[C@H](CC(C)C)NC(=O)[C@H](Cc1ccccc1)NC(=O)[C@H](Cc1c[nH]cn1)NC(=O)[C@H](C)NC(=O)[C@H](CC(C)C)NC(=O)[C@H](CCCNC(=N)N)NC(=O)[C@H](CCC(=O)O)NC(=O)[C@@H](NC(=O)[C@H](C)NC(=O)[C@@H]1CSSC[C@H](NC(=O)[C@H](CCCNC(=N)N)NC(=O)CC[C@H](NC(=O)CCCCCCCCCCCCCCCCCCC(=O)O)C(=O)O)C(=O)N2CCC[C@H]2C(=O)N[C@@H]([C@@H](C)O)C(=O)N[C@@H](C)C(=O)N[C@@H]([C@@H](C)O)C(=O)N1)[C@@H](C)O [Compound 74, [19CD]-isoGlu-R-C( )-PTAT-C( )-ATERLAHFLQRSSF-Gly(Me)-A-Ile(Me)-LSSTEVGSTT-Hyp-NH2] ({C20 diacid-γGlu}-RCPTATCATERLAHFLQRSSF[Sar]A[NMeI]LSSTEVGSTT[Hyp]-NH2; disulfide 2-7)
0.44				CC[C@H](C)[C@@H](C(=O)N[C@@H](CC(C)C)C(=O)N[C@@H](CO)C(=O)N[C@@H](CO)C(=O)N[C@H](C(=O)N[C@@H](CCC(=O)O)C(=O)N[C@H](C(=O)NCC(=O)N[C@@H](CO)C(=O)N[C@@H](CCCC(=O)O)C(=O)N[C@H](C(=O)N1C[C@H](O)C[C@H]1C(N)=O)[C@@H](C)O)C(C)C)[C@@H](C)O)N(C)C(=O)[C@H](C)NC(=O)CN(C)C(=O)[C@H](Cc1ccccc1)NC(=O)[C@H](CO)NC(=O)[C@H](CO)NC(=O)[C@H](CCCNC(=N)N)NC(=O)[C@H](CCC(N)=O)NC(=O)[C@H](CC(C)C)NC(=O)[C@H](Cc1ccccc1)NC(=O)[C@H](Cc1c[nH]cn1)NC(=O)[C@H](C)NC(=O)[C@H](CC(C)C)NC(=O)[C@H](CCCNC(=N)N)NC(=O)[C@H](CCC(=O)O)NC(=O)[C@@H](NC(=O)[C@H](C)NC(=O)[C@@H]1CSSC[C@H](NC(=O)[C@H](CCCNC(=N)N)NC(=O)CC[C@H](NC(=O)CCCCCCCCCCCCCCCCCCC(=O)O)C(=O)O)C(=O)N2CCC[C@H]2C(=O)N[C@@H]([C@@H](C)O)C(=O)N[C@@H](C)C(=O)N[C@@H]([C@@H](C)O)C(=O)N1)[C@@H](C)O [Compound 76, [19CD]-isoGlu-R-C( )-PTAT-C( )-ATERLAHFLQRSSF-Gly(Me)-A-Ile(Me)-LSSTEVGS-Aad-T-Hyp-NH2] ({C20 diacid-γGlu}-RCPTATCATERLAHFLQRSSF[Sar]A[NMeI]LSSTEVGS[Aad]T[Hyp]-NH2; disulfide 2-7)
0.15				CC[C@H](C)[C@@H](C(=O)N[C@@H](CC(C)C)C(=O)N[C@@H](CO)C(=O)N[C@@H](CO)C(=O)N[C@H](C(=O)N[C@@H](CCC(=O)O)C(=O)N[C@H](C(=O)NCC(=O)N[C@@H](CO)C(=O)N[C@@H](CO)C(=O)N[C@H](C(=O)N1CCC[C@H]1C(N)=O)[C@@H](C)O)C(C)C)[C@@H](C)O)N(C)C(=O)[C@H](C)NC(=O)CN(C)C(=O)[C@H](Cc1ccccc1)NC(=O)[C@H](CO)NC(=O)[C@H](CO)NC(=O)[C@H](CCCNC(=N)N)NC(=O)[C@H](CCC(=O)O)NC(=O)[C@H](CC(C)C)NC(=O)[C@H](Cc1ccccc1)NC(=O)[C@H](Cc1c[nH]cn1)NC(=O)[C@H](C)NC(=O)[C@H](CC(C)C)NC(=O)[C@H](CCCNC(=N)N)NC(=O)[C@H](CCC(N)=O)NC(=O)[C@@H](NC(=O)[C@H](C)NC(=O)[C@@H]1CSSC[C@H](NC(=O)[C@H](CCCNC(=N)N)NC(=O)CC[C@H](NC(=O)CCCCCCCCCCCCCCCCCCC(=O)O)C(=O)O)C(=O)N[C@@H](CC(N)=O)C(=O)N[C@@H]([C@@H](C)O)C(=O)N[C@@H](C)C(=O)N[C@@H]([C@@H](C)O)C(=O)N1)[C@@H](C)O [Compound 84, [19CD]-isoGlu-R-C( )-NTAT-C( )-ATQRLAHFLERSSF-Gly(Me)-A-Ile(Me)-LSSTEVGSSTP-NH2] ({C20 diacid-γGlu}-RCNTATCATQRLAHFLERSSF[Sar]A[NMeI]LSSTEVGSSTP-NH2; disulfide 2-7)
